Legend:
Assay in all cases: relative viability (nuclei count vs DMSO), 5 days (fraction); higher = more cells survive
Etoposide + Decitabine = compound: COc1cc([C@@H]2c3cc4c(cc3[C@@H](O[C@@H]3O[C@@H]5CO[C@@H](C)O[C@H]5[C@H](O)[C@H]3O)[C@H]3COC(=O)[C@H]23)OCO4)cc(OC)c1O [Etoposide] + Nc1ncn([C@H]2C[C@H](O)[C@@H](CO)O2)c(=O)n1 [Decitabine] (partner 2 µM)
Summary of the method: (§1)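 Relative viability is defined as nuclei in treated wells over nuclei in vehicle wells. Duplicate plates were run and medians reported. Lung cancer cell lines in 1536-well plates were dosed by pin tool one day after seeding, with one drug or with a fixed anchor-drug dose plus five library-drug doses (not always all listed) in √10 steps, and nuclei were counted after 5 days.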

Bleomycin + Crizotinib = compound: CC1=C(N=C(N=C1N)[C@H](CC(=O)N)NC[C@@H](C(=O)N)N)C(=O)N[C@@H]([C@H](C2=CN=CN2)OC3C(C(C(C(O3)CO)O)O)OC4C(C(C(C(O4)CO)O)OC(=O)N)O)C(=O)N[C@H](C)[C@H]([C@H](C)C(=O)N[C@@H]([C@@H](C)O)C(=O)NCCC5=NC(=CS5)C6=NC(=CS6)C(=O)NCCC[S+](C)C)O [Bleomycin] + C[C@@H](Oc1cc(-c2cnn(C3CCNCC3)c2)cnc1N)c1c(Cl)ccc(F)c1Cl [Crizotinib] (partner 1 µM); conditions: main component drawn
Summary of the method: as §1

Etoposide + Tozasertib = compound: COc1cc([C@@H]2c3cc4c(cc3[C@@H](O[C@@H]3O[C@@H]5CO[C@@H](C)O[C@H]5[C@H](O)[C@H]3O)[C@H]3COC(=O)[C@H]23)OCO4)cc(OC)c1O [Etoposide] + Cc1cc(Nc2cc(N3CCN(C)CC3)nc(Sc3ccc(NC(=O)C4CC4)cc3)n2)n[nH]1 [Tozasertib] (partner 0.1 µM)
Summary of the method: as §1

Etoposide + Trametinib = compound: COc1cc([C@@H]2c3cc4c(cc3[C@@H](O[C@@H]3O[C@@H]5CO[C@@H](C)O[C@H]5[C@H](O)[C@H]3O)[C@H]3COC(=O)[C@H]23)OCO4)cc(OC)c1O [Etoposide] + CC(=O)Nc1cccc(-n2c(=O)n(C3CC3)c(=O)c3c(Nc4ccc(I)cc4F)n(C)c(=O)c(C)c32)c1 [Trametinib] (partner 0.02 µM)
Summary of the method: as §1

Cell Line: UMC-11
- relative viability (Etoposide + Decitabine; first compound 0.01 µM): 0.462
- relative viability (Etoposide + Decitabine; first compound 0.03162 µM): 0.621
- relative viability (Etoposide + Decitabine; first compound 0.1 µM): 0.355
- relative viability (Etoposide + Decitabine; first compound 0.3162 µM): 0.356
- relative viability (Etoposide + Decitabine; first compound 1 µM): 0.319
- relative viability (Bleomycin + Crizotinib; first compound 0.01 µM): 0.528
- relative viability (Bleomycin + Crizotinib; first compound 0.03162 µM): 0.571
- relative viability (Bleomycin + Crizotinib; first compound 0.1 µM): 0.419
- relative viability (Bleomycin + Crizotinib; first compound 0.3162 µM): 0.326
- relative viability (Bleomycin + Crizotinib; first compound 1 µM): 0.252
- relative viability (Etoposide + Tozasertib; first compound 0.01 µM): 0.209
- relative viability (Etoposide + Tozasertib; first compound 0.03162 µM): 0.205
- relative viability (Etoposide + Tozasertib; first compound 0.1 µM): 0.186
- relative viability (Etoposide + Tozasertib; first compound 0.3162 µM): 0.206
- relative viability (Etoposide + Tozasertib; first compound 1 µM): 0.235
- relative viability (Etoposide + Trametinib; first compound 0.01 µM): 0.711
- relative viability (Etoposide + Trametinib; first compound 0.03162 µM): 0.711
- relative viability (Etoposide + Trametinib; first compound 0.1 µM): 0.352
- relative viability (Etoposide + Trametinib; first compound 0.3162 µM): 0.258
- relative viability (Etoposide + Trametinib; first compound 1 µM): 0.292

Source: the supplement of paper PMC10307832
